The source of these data is paper PMC8822125, “RW-BP100-4D, a Promising Antimicrobial Candidate With Broad-Spectrum Bactericidal Activity” (Frontiers in Microbiology, 2022).

Where no end group is shown, it is not given here.

Series [1] deals with methicillin-resistant S. aureus ATCC33591. The experiment in a line: Mouse skin infection model. The format is in vivo. The note with it: 24 h. How it is done: (§1) Female ICR mice (∼18 g, four weeks old) bought from Yangzhou University were used in this study. They were reared with ad libitum access to drinking water and antibiotic-free feed. The animal experiments were conducted in strict accordance with the Laboratory Animal Welfare and Animal Experimental Ethical Certificate, as issued by Committee on Animal Welfare and Experimental Ethics in Jiangsu Academy of Agricultural Sciences (approval no. JAAS20200516 and JAAS20211208).
(§2) The mouse skin infection model and bacteremia model were established to evaluate the treatment efficacy of RW-BP100-4D on local and system infections, respectively. In each model, ICR female mice were equally allocated into different treatment groups and each group contained six mice. The mouse skin infection model and bacteremia model were constructed according to previously described methods ([Natalia et al., 2019]; [Song et al., 2020]). The mice were challenged with methicillin-resistant S. aureus ATCC33591 (mecA+, MRSA) via spreading on skin lesion (5 × 10^5 CFU/mL, 0.1 mL) or intraperitoneal injection (3.0 × 10^8CFU/mL, 0.5 mL). […] S. aureus isolates were counted by using the Chromagar selective agar (Chromagar, France) supplemented with 8 μg/mL oxacillin.

Series [2] deals with Escherichia coli and Psudomnas aeruginosa isolates. Also on record: method as in Ferre et al., 2009. Particulars: ref Ferre et al., 2009; cited from earlier work.
A further series deals with various microorganisms. As to the kind of experiment: MIC/MBC, summary statements over several strains. The format is cell-based. Particulars: over the strains of Table 2.
In series [3] the test system is S. aureus ATCC29213 mature biofilm. The experiment in a line: Mature biofilm dispersal assay (crystal violet). The note with it: peptide 200 μg/mL, 30 min, 37°C on 24 h biofilm, crystal violet OD590. The format is cell-based, Staphylococcus aureus. Here is the method:
Each test was performed with three independent repeats.

The subject of another series is S. aureus ATCC29213. As to the kind of experiment: Intracellular antibacterial activity in MAC-T cells. Particulars: peptide 50 μg/mL, 2 h, infected MAC-T cells, CFU count. The format is cell-based, Staphylococcus aureus. How it is done: (§3) The intracellular antibacterial activity of RW-BP100-4D against S. aureus ATCC29213 and S. enterica ATCC13076 were determined as described previously ([John et al., 2019]). MAC-T cells were cultured in a 12-well plate and then infected with S. aureus ATCC29213 or S. enterica ATCC13076 (∼10^5CFU, MOI = 10) for 1 h. The spare bacteria were eliminated by treating with kanamycin (100 μg/mL) for 1 h. After that, kanamycin was removed by washing with PBS for 4 times. Then RW-BP100-4D or RW-BP100 were added to a final concentration of 50 μg/mL, respectively and incubated for 2 h. Meanwhile, kanamycin (50 μg/mL) and PBS were set as the antibiotic treatment group and treatment control group, respectively. Finally, MAC-T cells were treated with 0.1% TritonX-100. The lysates were serially diluted and spread on selective agar plates to enumerate the intracellular live bacteria. Each test was performed with three independent repeats.

The test system of the next series is S. enterica ATCC13076. The description is as above. The note with it: peptide 50 μg/mL, 2 h, infected MAC-T cells, CFU count. The format is cell-based, Salmonella enterica. How it is done:
as §3

Series [4] relates to methicillin-resistant S. aureus ATCC33591. As to the kind of experiment: Mouse bacteremia model. The format is in vivo. The note with it: 25 mg/kg intraperitoneal 2 h after infection; 24 h. How it is done:
as §1, §2

Another series has as its system human erythrocytes. Particulars: peptide 4.9 μM; ref Torcato et al., 2013; cited from earlier work.
The subject of another series is HeLa. Particulars: peptide concentration 11 μM; ref Torcato et al., 2013; cited from earlier work.

For the compound `CC1(C)S[C@@H]2[C@H](NC(=O)[C@H](N)c3ccccc3)C(=O)N2[C@H]1C(=O)O` [ampicillin], the “Bacteria load in infected mouse skin, antibiotic control” value in series [1] (ampicillin 1 mg/mL, 100 μL on skin lesion) was “did not decrease the bacteria load”.
“KKLFKKILKYL-NH2 [BP100, short cationic AMP of 11 amino acids (…-NH2), hybrid of cecropin A and melittin]”: in [2], the “MIC against Escherichia coli and Psudomnas aeruginosa isolates” value was 2.5 to 5 µM.
Turning to RRLFRRILRWL-NH2 [RW-BP100], in the series on various microorganisms, the “MBC values relative to the corresponding MIC values” was 4–8 fold. The “Mature biofilm matrix lost compared to the PBS control” value in series [3] is reported as 29.4%. Also, the “Elimination of intracellular S. aureus ATCC29213” value in the series on S. aureus ATCC29213 was determined as 2.34 log. The “Elimination of intracellular S. enterica ATCC13076” value with S. enterica ATCC13076 stood at 2.57 log. Moreover, the “Reduction of S. aureus ATCC33591 in infected mouse skin” value in [1] (peptide 50 μg (1 mg/mL, 50 μL) on skin lesion 2 h after infection, ICR female mice) is given as 3.13 log. The “Bacterial loads in heart, liver and kidney at 25 mg/kg” value in [4] is “did not significantly reduce”. Further, the “Hemolytic rate toward human erythrocytes” value with human erythrocytes is listed as 50%. The “Cell death rate of HeLa” value in the series with HeLa is 73%.
